Here are results for twelve compounds from publication PMC9863159, “Isolation and Identification of Lipid-Lowering Peptides from Sacha Inchi Meal” (International Journal of Molecular Sciences, 2023).

Where two headings read alike, the source gives them in different places. Peptide text beside a SMILES is read from it.

For test [1], the target named is T1, pancreatic lipase (Sus scrofa, UniProt P00591).
T1 sequence (P00591 1-450): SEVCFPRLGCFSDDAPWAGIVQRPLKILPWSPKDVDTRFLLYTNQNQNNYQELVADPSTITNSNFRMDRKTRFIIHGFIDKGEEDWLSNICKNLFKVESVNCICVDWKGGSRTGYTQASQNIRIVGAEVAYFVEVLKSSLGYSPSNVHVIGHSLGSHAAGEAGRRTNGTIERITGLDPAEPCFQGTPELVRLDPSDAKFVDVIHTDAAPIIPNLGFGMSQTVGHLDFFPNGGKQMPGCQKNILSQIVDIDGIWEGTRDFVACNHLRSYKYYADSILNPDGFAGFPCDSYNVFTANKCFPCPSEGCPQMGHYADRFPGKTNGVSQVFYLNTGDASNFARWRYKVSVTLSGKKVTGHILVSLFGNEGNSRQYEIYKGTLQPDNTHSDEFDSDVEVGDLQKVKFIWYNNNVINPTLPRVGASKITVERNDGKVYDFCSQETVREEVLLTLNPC
The test is described as follows: Pancreatic lipase inhibitory activity (4-MUO fluorescence). The format is biochemical. As to conditions: for inhibition at 500 µM: peptide concentration 0.5 mM, read-out: inhibitory percentage on pancreatic lipase; for IC50: read-out: IC50 against pancreatic lipase. The method, then:
The sample was diluted to an appropriate concentration with Tris HCl buffer. […] The fluorescence intensity was measured at excitation wavelength λex = 320 nm and emission wavelength λem = 450 nm. A buffer (25 μL) and enzyme solution (25 μL) were added for the control group. A sample solution (25 μL) and buffer (25 μL) were added for background group. Each group of experiments was repeated 3 times. The calculation formula of pancreatic lipase inhibition rate was as follows:(1) Lipase inhibition rate (%)=(1−FLUsample−FLUbackground/FLUnegative control−FLUnegative background)×100
Among them, FLUsample was the light absorption value of the experimental group; FLUbackground was the light absorption value of the sample background group; FLUnegative control was the absorbance value of the control group without samples; and FLUnegative background was the absorbance value of the background of the control group.

Test [2] deals with T1, pancreatic lipase. Description: Inhibition kinetics of pancreatic lipase (Lineweaver–Burk). The format is biochemical. As to conditions: read-out: equilibrium constant Ki. Here is the method:
In total, a 25 μL sample solution of different concentrations, a 25 μL enzyme solution, and 50 μL substrates with different concentrations were added to the 96-well plate. The fluorescence value FLU was immediately measured at the excitation wavelength λex = 320 nm and emission wavelength λem = […], every 1 min within 20 min, and each group of experiments was repeated 3 times. The slope of the “fluorescence value-time” linear fitting curve represented the reaction rate of the enzyme in the presence of the sample. The Lineweaver–Burk double reciprocal diagram was drawn to analyze the inhibition type of synthetic peptides on enzymes.

Test [3] deals with T1, pancreatic lipase. Description: Fluorescence quenching assay of pancreatic lipase. Particulars: binding constant Ka, Table S2.
In a further test the test system is HepG2 cells. The test is described as follows: Fat accumulation (oil red O) and triglyceride content in oleic acid-induced HepG2. The format is cell-based. Particulars: orlistat positive control 2 mM, peptides at different concentrations.
Test [4] has as its target T1, pancreatic lipase. Details: method as in PMID 36195236. Particulars: peptides from sesame proteins ref 6; cited from earlier work.
For a further test, the system named is 3T3-L1 preadipocytes. Details: method as in doi:10.1016/j.jff.2018.05.066. As to conditions: 600 μg/mL, compared with the control ref 24; cited from earlier work.
For test [5], the system named is porcine pancreatic lipase. Set-up: method as in PMID 31569521. Particulars: 200 µg/mL ref 25; cited from earlier work.
The test system of a further test is 3T3-L1 cells. Details: method as in PMID 31569521. As to conditions: 600 µg/mL, 3T3-L1 cells ref 25; cited from earlier work.
The conditions of test [6]: cited from earlier work.

Protocol for HepG2 cells: The HepG2 cells (Guangzhou Health Institute, Guangzhou, China) in logarithmic growth period were starved with serum-free medium for 12 h. Then, we replaced the medium with a complete medium containing 0.5 mM oleic acid and 0.4% FBS, and cultured this for 2–4 days (replacing the new oleic acid containing medium every day). The cells were divided into groups, and samples were added to each group as follows: Normal group: 1 mL of complete medium containing 0.4% serum; Model group: 1 mL of medium containing 0.5 mM oleic acid and 0.4% FBS; Positive control group: 1 mL of medium containing 2 mM orlistat, 0.5 mM oleic acid and 0.4% FBS; Sample treatment group: adding 1 mL of samples with different concentrations (high, medium, low) and medium containing 0.5 mM oleic acid and 0.4% FBS. […] Then, the paraformaldehyde solution was discarded, PBS was washed 3 times, and 1 mL of oil red O staining solution was added to each well. After dyeing at 37 °C for 1 h, the dye solution was discarded, washed with PBS 3 times, and 1 mL of PBS was added to prevent cell drying. […] According to the instructions of the triglyceride (TG) test box, the TG content of each well was measured using the GPO-PAP method, and the protein content was measured using the BCA method. The results were expressed as the triglyceride content per gram of protein (mmol/g protein).

Broadly, the IC50 is the concentration that gives 50% inhibition. As usually defined, the Ki is the equilibrium dissociation constant of an inhibitor or competing ligand from its target. On to `CSCC[C@H](NC(=O)[C@H](CC(C)C)NC(=O)[C@H](CC(C)C)NC(=O)CNC(=O)[C@@H](N)CCC(=O)O)C(=O)N[C@@H](Cc1c[nH]c2ccccc12)C(=O)N1CCC[C@H]1C(=O)N[C@@H](Cc1ccc(O)cc1)C(=O)O` [EY-8] (H-EGLLMWPY-OH), for which, on pancreatic lipase [1], the inhibition at 500 µM was 80.47 ± 0.11% and the IC50 came to 171 µM. At pancreatic lipase [2], the Ki is 578 ± 58.1 µM.
In general, Kd refers to the concentration at which binding is half-saturated. Low values mean higher affinity, high ones lower affinity. Take `CC(C)C[C@H](NC(=O)[C@@H](N)CC(N)=O)C(=O)N[C@@H](Cc1ccc(O)cc1)C(=O)N[C@@H](Cc1ccc(O)cc1)C(=O)N[C@@H](CCCCN)C(=O)N[C@H](C(=O)N[C@H](C(=O)O)C(C)C)C(C)C` [NV-7, NLYYKVV] (H-NLYYKVV-OH): the inhibition at 500 µM at pancreatic lipase [1] worked out at 95.42 ± 0.6%. For the same compound, at pancreatic lipase [2], the Ki is 77.3 ± 7.65 µM. Further, the Kd at pancreatic lipase [3] (298 K) was 93.8 µM; at pancreatic lipase [3] (304 K), 106 µM; at pancreatic lipase [3] (310 K), 203 µM.
Take `CC(C)[C@H](NC(=O)[C@H](Cc1ccc(O)cc1)NC(=O)[C@H](Cc1c[nH]c2ccccc12)NC(=O)[C@@H](N)Cc1c[nH]c2ccccc12)C(=O)N[C@@H](CCCCN)C(=O)O` [WK-5, WWYVK] (H-WWYVK-OH): on pancreatic lipase [1], the inhibition at 500 µM worked out at 68.9 ± 1.8% and the IC50 was 246 µM. Besides, the Ki on pancreatic lipase [2] is 578 ± 25.7 µM.
On to `CSCC[C@H](NC(=O)[C@H](CC(C)C)NC(=O)[C@H](CC(C)C)NC(=O)[C@@H](N)Cc1c[nH]c2ccccc12)C(=O)N[C@@H](Cc1c[nH]c2ccccc12)C(=O)N1CCC[C@H]1C(=O)N[C@@H](Cc1ccc(O)cc1)C(=O)N[C@@H](CCCCN)C(=O)O` [WK-8] (H-WLLMWPYK-OH), for which, at pancreatic lipase [1], the inhibition at 500 µM stood at 67.3 ± 1.1% and the IC50 is 52.8 µM. Further, the Ki at pancreatic lipase [2] was determined as 192 ± 25.3 µM.
As for `CCCCCCCCCCC[C@@H](C[C@@H]1OC(=O)[C@H]1CCCCCC)OC(=O)[C@H](CC(C)C)NC=O` [orlistat], the “fat (oil) accumulation in HepG2 cells, oil red O staining” value in the test with HepG2 cells is given as “significantly reduce the oil accumulation in cells”.
AGY: the concentration for half-maximal inhibition (IC50) on pancreatic lipase [4] was 1180 ± 179 µM.
As for CANPHELPNK, in the test with 3T3-L1 preadipocytes, the “inhibition on triglyceride production” value was 19.5%.
For the compound “Leu-Leu-Val-Val-Try-Pro-Trp-Thr-Gln-Arg [PP1]”, in test [5], the “inhibitory effect against porcine pancreatic lipase” value is listed as 47.95%. In the test with 3T3-L1 cells, the “decrease of accumulation of intracellular triacylglycerol” value is reported as 27.9%.
As for NIF, on pancreatic lipase [4], the IC50 is 1040 ± 179 µM.
As for NPVWKRK, in the test on 3T3-L1 preadipocytes, the “inhibition on triglyceride production” value is recorded as 23.7%.
Consider QWM, for which the IC50 at pancreatic lipase [4] is 986 ± 170 µM.
For the compound VVYP, the effect on hypertriglyceridemia result in [6] was “inhibitory effect on hypertriglyceridemia”.
